Experimental data reported in paper PMC10794144, “A novel antibiotic class targeting the lipopolysaccharide transporter” (Nature, 2024).
Like-named read-outs stand apart in the source and are kept apart here.

System: A. baumannii
Experiment: microbe, parasite or virus in culture
Conditions: Acinetobacter baumannii, 100%
Summary of the method: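 MIC was taken as the lowest concentration without visible growth, or past which OD600 no longer fell. Testing followed CLSI M07 and M100 broth microdilution, using 0.5 McFarland-derived inocula in CAMHB (LB for A. baylyi isolates).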

Measured: MIC

C[C@@H](O)[C@H]1C(=O)N2C(C(=O)O)=C(S[C@@H]3CN[C@H](C(=O)N(C)C)C3)[C@H](C)[C@H]12 [meropenem, reference compound]
16 µg/mL: read-out: MIC 100%, ROB08702, Study LGC281440 | read-out: MIC 100%, ROB08702, Study LGC294355 | read-out: MIC 100%, ROB08702, Study LGC295147 | read-out: MIC 100%, ROB08702, Study LGC296813 | read-out: MIC 100%, ROB08702, Study LGC301026 | read-out: MIC 100%, ROB08702, Study ROC003 | read-out: MIC 100%, ROB08702, Study ROC008 | read-out: MIC 100%, ROB08702, Study ROC009
8 µg/mL: read-out: MIC 100%, ROB08702, Study LGC284879
> 64 µg/mL: read-out: MIC 100%, ROB08703, Study LGC279800 | read-out: MIC 100%, ROB08703, Study LGC283932 | read-out: MIC 100%, ROB08703, Study LGC284879 | read-out: MIC 100%, ROB08703, Study LGC285582 | read-out: MIC 100%, ROB08703, Study LGC293598 | read-out: MIC 100%, ROB08703, Study LGC299544 | read-out: MIC 100%, ROB08703, Study ROC005 | read-out: MIC 100%, ROB08703, Study ROC007 | read-out: MIC 100%, ROB08703, Study ROC013
2 µg/mL: read-out: MIC 100%, ROB08701, Study LGC296813
32 µg/mL: read-out: MIC 100%, ROB08702, Study LGC277937 | read-out: MIC 100%, ROB08702, Study LGC279800 | read-out: MIC 100%, ROB08702, Study LGC282623 | read-out: MIC 100%, ROB08702, Study LGC283932 | read-out: MIC 100%, ROB08702, Study LGC284200 | read-out: MIC 100%, ROB08702, Study LGC285582 | read-out: MIC 100%, ROB08702, Study LGC286210 | read-out: MIC 100%, ROB08702, Study LGC293598 | read-out: MIC 100%, ROB08702, Study LGC299544 | read-out: MIC 100%, ROB08702, Study LGC308175 | read-out: MIC 100%, ROB08702, Study ROC004 | read-out: MIC 100%, ROB08702, Study ROC005 | read-out: MIC 100%, ROB08702, Study ROC007 | read-out: MIC 100%, ROB08702, Study ROC010 | read-out: MIC 100%, ROB08702, Study ROC012 | read-out: MIC 100%, ROB08702, Study ROC013 | read-out: MIC 100%, ROB08704, Study LGC281440 | read-out: MIC 100%, ROB08704, Study LGC282160 | read-out: MIC 100%, ROB08704, Study LGC283932 | read-out: MIC 100%, ROB08704, Study LGC284200 | read-out: MIC 100%, ROB08704, Study LGC285582 | read-out: MIC 100%, ROB08704, Study LGC293598 | read-out: MIC 100%, ROB08704, Study LGC296813 | read-out: MIC 100%, ROB08704, Study LGC299544 | read-out: MIC 100%, ROB08704, Study LGC301026 | read-out: MIC 100%, ROB08704, Study ROC009
64 µg/mL: read-out: MIC 100%, ROB08702, Study LGC282160 | read-out: MIC 100%, ROB08702, Study ROC006 | read-out: MIC 100%, ROB08703, Study LGC277937 | read-out: MIC 100%, ROB08703, Study LGC281440 | read-out: MIC 100%, ROB08703, Study LGC282160 | read-out: MIC 100%, ROB08703, Study LGC282623 | read-out: MIC 100%, ROB08703, Study LGC284200 | read-out: MIC 100%, ROB08703, Study LGC286210 | read-out: MIC 100%, ROB08703, Study LGC294355 | read-out: MIC 100%, ROB08703, Study LGC295147 | read-out: MIC 100%, ROB08703, Study LGC296813 | read-out: MIC 100%, ROB08703, Study LGC301026 | read-out: MIC 100%, ROB08703, Study LGC308175 | read-out: MIC 100%, ROB08703, Study ROC003 | read-out: MIC 100%, ROB08703, Study ROC004 | read-out: MIC 100%, ROB08703, Study ROC006 | read-out: MIC 100%, ROB08703, Study ROC008 | read-out: MIC 100%, ROB08703, Study ROC009 | read-out: MIC 100%, ROB08703, Study ROC010 | read-out: MIC 100%, ROB08703, Study ROC012 | read-out: MIC 100%, ROB08704, Study LGC277937 | read-out: MIC 100%, ROB08704, Study LGC279800 | read-out: MIC 100%, ROB08704, Study LGC282623 | read-out: MIC 100%, ROB08704, Study LGC284879 | read-out: MIC 100%, ROB08704, Study LGC286210 | read-out: MIC 100%, ROB08704, Study LGC294355 | read-out: MIC 100%, ROB08704, Study LGC295147 | read-out: MIC 100%, ROB08704, Study LGC308175 | read-out: MIC 100%, ROB08704, Study ROC003 | read-out: MIC 100%, ROB08704, Study ROC004 | read-out: MIC 100%, ROB08704, Study ROC005 | read-out: MIC 100%, ROB08704, Study ROC006 | read-out: MIC 100%, ROB08704, Study ROC007 | read-out: MIC 100%, ROB08704, Study ROC008 | read-out: MIC 100%, ROB08704, Study ROC010
0.5 µg/mL: read-out: MIC 100%, ROB08701, Study ROC012
1 µg/mL: read-out: MIC 100%, ROB08701, Study LGC299544 | read-out: MIC 100%, ROB08701, Study LGC301026 | read-out: MIC 100%, ROB08701, Study LGC308175 | read-out: MIC 100%, ROB08701, Study ROC003 | read-out: MIC 100%, ROB08701, Study ROC004 | read-out: MIC 100%, ROB08701, Study ROC005 | read-out: MIC 100%, ROB08701, Study ROC006 | read-out: MIC 100%, ROB08701, Study ROC007 | read-out: MIC 100%, ROB08701, Study ROC008 | read-out: MIC 100%, ROB08701, Study ROC009 | read-out: MIC 100%, ROB08701, Study ROC010 | read-out: MIC 100%, ROB08701, Study ROC013
